Measurements reported in patent US9670242B2, “Tetracyclic anthraquinone derivatives” (Tianjin Hemay Bio-Tech Co., Ltd, priority 2012, dated 2017).

Legend:
Hep3B cells = assay: Hep3B cell growth inhibition test (SRB assay); format: cell-based; conditions: 72 h
Experimental: Hep3B Cell Growth Inhibition Test (SRB Assay)
II. Reagents and Consumable Materials
Culture medium: 90% RPMI-1640+10% FBS; Pancreatin (0.25% (w/v) solution was formulated with PBS, 0.53 mM of EDTA was added in the formulation); PBS; 96-well culture plate.
(§1) 1. A plate (10 cm) of cells in logarithmic growth phase that were normally cultured was collected;
2. The culture solution was sucked out. The plate was washed with 5 mL of PBS once or twice;
3. 1.5 mL of 0.25% pancreatin was added to the plate to infiltrate the cells;
4. The pancreatin was sucked out. The culture plate was placed in an incubator. Digestion was carried out for about 3 min at 37° C.;
(§2) 5. 4 mL of complete culture solution was added to the culture plate to stop the digestion. The cells were carefully scoured with micropipette (1 mL) to give a uniform single cell suspension. The suspension was implanted into a 96-well cell culture plate by 5000 cells/100 μL per well. The culture plate was incubated overnight under 5% CO2 at 37° C. In day 2, 100 μL of culture solution comprising a compound was added in each well. The plate was further incubated for 72 h under 5% CO2 at 37° C.;
6. The culture solution was sucked out. 100 uL of TCA fixed cells which were diluted to 10% were added to each well. The plate was kept in a refrigerator for 1 h at 4° C.
7. TCA stationary liquid was sucked out. Each well was washed with 150 μL of ddH2O five times;
8. After the stationary liquid was cleansed, the plate was dried in the air at the room temperature;
9. 60 μL of SRB staining solution was added in each well. The well was stained for 15 min at the room temperature;
10. The SRB staining solution was sucked out. Each well was washed with 150 μL of 1% glacial acetic acid five times;
11. After the SRB staining solution was cleansed, the plate was dried in the air at the room temperature;
12. 100 μL of 10 mM Tris was added in each well. The plate was vibrated to dissolve out SRB;
13. OD values were determined at 570 nM.
IV. Results and Treatments
1. Calculation of Relative Inhibition Ratio The inhibition ratio of the compound on cell growth=(PC−n)/(PC−NC)×100% […]

NCI-446 cells = assay: NCI-446 cell growth inhibition test (MTT assay); format: cell-based, human; conditions: 72 h
Experimental: NCI-446 Cell Growth Inhibition Test (MTT Assay)
II. Reagents and Consumable Materials Culture medium: 90% RPMI1640+10% FBS (fetal calf serum); Pancreatin (0.25% (w/v) solution was formulated with PBS, 0.53 mM of EDTA was added in the formulation); PBS; 96-well culture plate.
as §1
2. The culture solution was sucked out. The plate was washed with 5 ml of PBS once or twice;
3. PBS was sucked out. 1.5 mL of 0.25% pancreatin was added to the plate to infiltrate the cells for 1 min;
4. The culture plate was placed in an incubator. Digestion was carried out for about 3 min at 37° C.;
as §2, with “5. 3 mL of” for “5. 4 mL of”, “a uniform cell suspension.” for “a uniform single cell suspension.”, “cell culture disc by 4000” for “cell culture plate by 5000”, “disc by 4000 cells/100 μL” for “plate by 5000 cells/100 μL”
6. The culture solution was sucked out;
7. 100 μL of serum-free culture solution containing 0.5 mg/mL MTT was added in each well. The plate was incubated for 3 h;
8. The culture solution was carefully sucked out;
9. […]
10. OD values were determined at 490 nM. […]

mice of ICR strain = assay: Assay on MTD (maximum tolerated dose) in vivo of mice; conditions: for MTD: caudal vein injection, q4d×5 administration regimen; for Mortality Rate (%) / Number of Dead Animals ♂/♀: i.v., 5♂/5♀ per group; for Number of Dead Animals ♂/♀: 5 administrations
Experimental: Assay on MTD (Maxium Tolerated Dose) In Vivo of Mice
Assay on Maxium Tolerated Dose of Compound
Assay animals: mice of ICR strain with a weight of 18-22 g, purchased from Beijing Vital River Laboratories Limited, License SCXK (jing) 2007-0001.
Administration Regimen: each experimental animal was administered with corresponding dosage of tested substance once by injection of caudal vain every three days. Each dosage was initially designed as 5 times of administration. The specific time of administration depended on the conditions of the animals. It should be carefully observed the behavior conditions of the animals within 2 hours after administration. The animal's behavior was observed every 4 hours in the day of administration. The survival conditions and weight of animals were recorded every day and observed for whether abnormality occurred on the body surface thereof. The experimental animals were sacrificed on 14 day after administration and dissected for observation.
I group: (20 mg/kg) group;
II group: (25 mg/kg) group;
III group: (30 mg/kg) group;
IV group: solvent control group;
There were four groups in total. Each group consisted of five male mice and five female mice.
I group: (40 mg/kg) group;
II group: (45 mg/kg) group;
III group: (50 mg/kg) group;
IV group: (55 mg/kg) group;
V group: (60 mg/kg) group;
There were five groups in total. Each group consisted of six male mice and six female mice.
a represents that the experimental animal died immediately after the injection of drug rather than death caused by cytotoxicity.
I group: (30 mg/kg) group;
II group: (40 mg/kg) group;
IV group: (60 mg/kg) group;

BxPc-3 cells = assay: BxPc-3 cell growth inhibition test (MTT assay); format: cell-based, human; conditions: growth inhibition at 2000 nM, 70 h
Outline: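 BxPC-3 human pancreatic cancer cells at 5000 per well in RPMI-1640 with 10% FBS were treated with compound from day 2 for 70 h at 37 °C, 5% CO2. Viability was measured by MTT (0.5 mg/mL, 3 h) with DMSO solubilisation and OD 490 nm. Inhibition ratio = (PC−n)/(PC−NC)×100%.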

[1] = Solubility of the compound in water; format: physicochemical

Row | Structure (SMILES) | IC50 (Hep3B cells) [nM] | IC50 (NCI-446 cells) [nM] | MTD (mice of ICR strain) | MTD (mice of ICR strain; molar equivalent) [mmol/kg] | Mortality Rate (%) (mice of ICR strain; 30 mg/kg, 5 administrations (total 150 mg/kg)) | Number of Dead Animals ♂/♀ (mice of ICR strain; 30 mg/kg) | Mortality Rate (%) (mice of ICR strain; 40 mg/kg, 5 administrations (total 200 mg/kg)) | Number of Dead Animals ♂/♀ (mice of ICR strain; 40 mg/kg) | Mortality Rate (%) (mice of ICR strain; 50 mg/kg, 5 administrations (total 250 mg/kg)) | Number of Dead Animals ♂/♀ (mice of ICR strain; 50 mg/kg) | Mortality Rate (%) (mice of ICR strain; 60 mg/kg, 5 administrations (total 300 mg/kg)) | Number of Dead Animals ♂/♀ (mice of ICR strain; 60 mg/kg) | Inhibition Ratio (%) (BxPc-3 cells) | solubility of the compound in water [1]
1 | COc1cccc2c1C(=O)c1c(O)c3c(c(O)c1C2=O)CC(O)(C(=O)COC(=O)CCC(=O)O)CC3OC1CC(n2cccc2)C(O)C(C)O1 (stereo not drawn) [Compound A, 3′-pyrrolyldoxorubicin-14-oxo-succinic acid monoester, reference compound] | 444 | 234 | approximately 30 mg/kg | ~0.0433 | 10 | 0/1 | 50 | 3/2 | 100 | 5/5 | 100 | 5/5 | – | –
2 | COc1cccc2c1C(=O)c1c(O)c3c(c(O)c1C2=O)CC(O)(C(=O)COC(=O)CCC(=O)NCCOCCO)CC3OC1CC(n2cccc2)C(O)C(C)O1 (stereo not drawn) [Example 62] | – | – | – | – | – | – | – | – | – | – | – | – | 82.5 | –
3 | CC(=O)O.COc1cccc2c1C(=O)c1c(O)c3c(c(O)c1C2=O)CC(O)(C(=O)COC(=O)CCC(=O)NCCCN1CCN(C)CC1)CC3O[C@H]1C[C@H](n2cccc2)[C@H](O)[C@H](C)O1 (stereo partly drawn) [Example 81, 10-((3′-(pyrrol-1-yll)-2′,3′,6′-trideoxy-alphal-l-lyxo-hexylpyranyl)oxy)-7,8,9,10-tetrahydro-6,8,11-trihydroxy-13-oxo-14-(4-((3-(4-methylpiperazin-1-yl)propyl)amino)-4-oxo-butyrato)-1-methoxy-5,12-naphthalenedione acetate] | – | – | – | – | – | – | – | – | – | – | – | – | 80.7 | more than 7 mg/ml
